# According to patent publication US20130245110A1, “USE FOR CANNABINOIDS” (priority 2008, published 2013):
# Several values for one entry are separate records, joined by “and”; a condition that tells them apart may be missing. Equal values may be shown once.
# Assays:
# C57B1/6 ob/ob mouse = assay: Fed plasma cholesterol; format: in vivo; conditions: ob/ob mice, individual values
# Experimental: Blood samples were also taken at −30 minutes for insulin analysis. • e) Blood Glucose analysis: Duplicate 20 μl samples of blood of were taken for each individual sample and placed in a 96-well assay plate. To each well was added 180 μl aliquots of glucose oxidase reagent. Samples were mixed and then left for approximately 30 minutes. Samples were then analysed automatically using a SpectraMax-250 and SoftMax Pro software. • f) Plasma preparation: Blood was collected for the measurement of i) plasma insulin, ii) cholesterol, iii) free fatty acids or iv) triglyceride concentration. • i. Plasma insulin analysis: Plasma insulin was measured using 5 μl of plasma, compared with a mouse insulin standard using a 96-well micro-assay plate • ii. Plasma cholesterol analysis: To each sample was added 200 μl of infinity cholesterol liquid stable reagent. The samples were mixed and incubated for 5 minutes before reading at dual wavelengths of 500 and 660 nm. • iii. Plasma free fatty acids: 5 μl samples of plasma were measured into a 96-well assay plate, to which was added 0.2 ml of reagents NEFA C • iv. Plasma triglycerides analysis: To each well 200 μl aliquots of triglycerides reagent. […] Comparison with a calibrated standard allowed identification of types of tissue by their density. Dedicated software was using to quantify amounts of bone and fat. The mice were lightly anaesthetised, sufficient to keep them quiescent during this non-invasive technique. • h) Energy expenditure measurements: Energy expenditure was measured by open circuit indirect calorimetry with mice in their home cages. For studies of 24 h energy expenditure, mice were dosed with their allocated treatment and then measurements commenced. […] Plasma leptin was measured in fed mice using the Crystal Chem Elisa assay. • j) Plasma adiponectin: Adiponectin exerts some of its weight reduction effects via the brain. […] Plasma adiponectin was measured in overnight fasted mice using the 96-well B-Bridge Elisa assay. • k) Plasma HDL-cholesterol: Plasma HDL-cholesterol was measured in fed mice using the kit from Trinity Biotech. • l) 24 h blood glucose profile: This was determined in order to ensure that changes in the diurnal control of blood glucose were detected. Thus blood samples were obtained at three hourly intervals throughout a continuous 24 h period. • m) Plasma haemoglobin AIC: Samples (10 μl) were analysed using the AIC. […] Morphology was assessed using hematoxylin and eosin staining. • p) Liver glycogen: After centrifugation (3000×g for 15 min), an aliquot of the supernatant (10 μl) is assayed using the glucose oxidase method. […] The residue is dissolved in 200 μl ethanol and triglyceride content measured. […]
# rat isolated aortae = assay: In vitro vascular studies by wire myography; conditions: for Time-dependent relaxation of pre-contracted aorta: 2 h (120 min)
# [1] = 3.0 mg·kg−1 daily oral gavage (combination: both 3.0)
SMILES,Fed plasma cholesterol day 28 (C57B1/6 ob/ob mouse; [1]),"Fed plasma cholesterol day 28 (C57B1/6 ob/ob mouse; 3.0 mg·kg−1 daily oral gavage (combination: both 3.0), listed as Pure CBD)","Potency and maximal contractile response to re-introduction of calcium (rat isolated aortae; calcium free, high potassium Krebs-Hensleit solution, CBD from 1 μM to 30 μM)",Vasorelaxant effect in arteries contracted with high potassium buffer (rat isolated aortae; compared with control),"Vasorelaxant effect, tone induced with U46619 in calcium free buffer (rat isolated aortae; compared with control)",Vasorelaxant effect in endothelium-denuded versus control aortae (rat isolated aortae; rat aorta),"Time-dependent relaxation of pre-contracted aorta (rat isolated aortae; rat aorta, 10 μM)","Residual relaxation (vasorelaxant effect minus effect of vehicle and time) (rat isolated aortae; rat aorta, 10 μM, after 2 h)","Basal tension over time (rat isolated aortae; rat aorta, 2 h)","Time-dependent vascular responses in the presence of AM251 (rat isolated aortae; rat aorta, CB1 antagonist AM251 1 μM)","Residual vasorelaxant effects in the presence of SR144528 (rat isolated aortae; rat aorta, CB2 antagonist SR144528 1 μM, between 45 min to 90 min)","Residual vasorelaxant effect in the presence of L-NAME (rat isolated aortae; rat aorta, L-NAME 300 μM, versus control conditions)","Residual vasorelaxant effect in the presence of GW9662 (rat isolated aortae; rat aorta, PPARγ antagonist GW9662 1 μM, after 1 h of incubation)","Vascular response over time after pre-treatment with PTX or capsaicin (rat isolated aortae; rat arteries, PTX 200 ng ml−1, 2 h or capsaicin 10 μM, 1 h)",Fed plasma cholesterol day 28 (C57B1/6 ob/ob mouse; 0.3 mg·kg−1 daily oral gavage (combination: both 0.3)),"Time without effect on tone (rat isolated aortae; pre-contracted aortae, 10 μM)"
"C=C(C)[C@@H]1CCC(C)=C[C@H]1c1c(O)cc(CCCCC)cc1O [CBD, cannabidiol]",reduced the total plasma cholesterol concentration and 3.64 and 4.22 and 3.77 and 5.02 and 2.90 and 5.38 and 3.50,reduced the total plasma cholesterol,significantly reduced in a concentration-dependent manner,no difference,significantly blunted,similar,69.7±4.0 % relaxation,50.1±3.3 % relaxation,-0.03 ± 0.01 g,did not significantly affect,significantly inhibited,not different,significantly reduced,no effect,–,–
"CCCc1cc(O)c2c(c1)OC(C)(C)[C@@H]1CCC(C)=C[C@@H]21 [THCV, tetrahydrocannabivarin]",6.30 and 6.94 and 6.59 and 6.20 and 7.22 and 6.46 and 7.66 and 7.05,–,–,–,–,–,28.7±4.6 % relaxation,–,–,–,–,–,–,–,7.12 and 8.60 and 6.43 and 5.99 and 6.21 and 6.45 and 5.93 and 5.62,> 105 min
